Reference: patent US12516016B2, “GPX4 inhibitors, pharmaceutical compositions thereof, and their use for treating GPX4-mediated diseases” (EUBULUS BIOTHERAPEUTICS (HONG KONG) LIMITED, priority 2020, dated 2026)
Read-outs that look alike come from different tables or passages of the source.

Test system: hepatocellular carcinoma cell line Hub-7
Test: Cell proliferation assay (CELL-TITER GLO cell viability)
Assay type: cell-based
Settings: Hub-7 cells, 24 h incubation, read-out: Inhibition of Cell Proliferation EC50
Experimental: The activity of a test compound was determined in a cell proliferation assay using the hepatocellular carcinoma cell line […]. Cells (4,000 cells per well) were seeded in a 96-well tissue culture plate. After incubated overnight, a test compound was added at predetermined concentrations, starting with 10 μM and followed by 3-fold serial dilution. After the cells were incubated for 24 h, cell viability was determined using a CELL-TITER GLO® assay. The CELL-TITER GLO® reagent (50 μL) was added to each well and the luminescence was measured by a multimode microplate reader after a brief period of shaking. EC50 values were determined for the test compound. The results are summarized in Table 1, wherein A represents a value no greater than 100 nM, B represents a value greater than 100 nM but no greater than 500 nM, C represents a value greater than 500 nM but no greater than 2 μM, D represents a value greater than 2 μM but no greater than 10 μM; and E represents a value greater than 10 μM.

Row | Compound | EC50 (24 h) [nM] | EC50 [nM]
1 | C#CC(=O)N(c1cccc(S(N)(=O)=O)c1)C(C(=O)NC(C)(C)C)c1ccc(N)cc1 (centres unmarked) [A2, N-(1-(4-aminophenyl)-2-(tert-butylamino)-2-oxoethyl)-N-(3-sulfamoylphenyl)propiolamide] | > 10000 | 
2 | C#CC(=O)N(c1ccc(OC)c(Cl)c1)C(C(=O)NC(C)(C)C)c1ccc(N)cc1 (centres unmarked) [A3, N-(1-(4-Aminophenyl)-2-(tert-butylamino)-2-oxoethyl)-N-(3-chloro-4-methoxy-phenyl)propiolamide] | ≤ 100 | 
3 | C#CC(=O)N(c1ccc(Cl)cc1)C(C(=O)NC(C)(C)C)c1ccc(N)cc1 (centres unmarked) [A4, N-(1-(4-Aminophenyl)-2-(tert-butylamino)-2-oxoethyl)-N-(4-chlorophenyl)-propiolamide] | 100 to 500 | 
4 | C#CC(=O)N(c1cccc(Cl)c1)C(C(=O)NC(C)(C)C)c1ccc(N)cc1 (centres unmarked) [A5, N-(1-(4-Aminophenyl)-2-(tert-butylamino)-2-oxoethyl)-N-(3-chlorophenyl)-propiolamide] | 100 to 500 | 
5 | C#CC(=O)N(c1cccc(S(C)(=O)=O)c1)C(C(=O)NC(C)(C)C)c1ccc(N)cc1 (centres unmarked) [A6, N-(1-(4-Aminophenyl)-2-(tert-butylamino)-2-oxoethyl)-N-(3-(methylsulfonyl)phenyl)propiolamide] | 2000 to 10000 | 
6 | C#CC(=O)N(c1cccc(OC)c1)C(C(=O)NC(C)(C)C)c1ccc(N)cc1 (centres unmarked) [A7, N-(1-(4-Aminophenyl)-2-(tert-butylamino)-2-oxoethyl)-N-(3-methoxyphenyl)-propiolamide] | 100 to 500 | 
7 | C#CC(=O)N(c1cccc(C(=O)OC)c1)C(C(=O)NC(C)(C)C)c1ccc(N)cc1 (centres unmarked) [A8, Methyl 3-(N-(1-(4-aminophenyl)-2-(tert-butylamino)-2-oxoethyl)-propiolamido)-benzoate] | ≤ 100 | 
8 | C#CC(=O)N(c1ccc(N)cc1)C(C(=O)NC(C)(C)C)c1ccc(N)cc1 (centres unmarked) [A9, N-(4-Aminophenyl)-N-(1-(4-aminophenyl)-2-(tert-butylamino)-2-oxoethyl)-propiolamide] | 2000 to 10000 | 
9 | C#CC(=O)N(c1ccc(C(N)=O)cc1)C(C(=O)NC(C)(C)C)c1ccc(N)cc1 (centres unmarked) [A10, 4-(N-(1-(4-Aminophenyl)-2-(tert-butylamino)-2-oxoethyl)propiolamido)-benzamide] | > 10000 | 
10 | C#CC(=O)N(c1ccc(S(N)(=O)=O)cc1)C(C(=O)NC(C)(C)C)c1ccc(N)cc1 (centres unmarked) [A11, N-(1-(4-Aminophenyl)-2-(tert-butylamino)-2-oxoethyl)-N-(4-sulfamoylphenyl)-propiolamide] | > 10000 | 
11 | C#CC(=O)N(c1ccc(O)cc1)C(C(=O)NC(C)(C)C)c1ccc(N)cc1 (centres unmarked) [A12, N-(1-(4-Aminophenyl)-2-(tert-butylamino)-2-oxoethyl)-N-(4-hydroxyphenyl)-propiolamide] | > 10000 | 
12 | C#CC(=O)N(c1ccc(NC(C)=O)cc1)C(C(=O)NC(C)(C)C)c1ccc(N)cc1 (centres unmarked) [A13, N-(4-Acetamidophenyl)-N-(1-(4-aminophenyl)-2-(tert-butylamino)-2-oxoethyl)-propiolamide] | 2000 to 10000 | 
13 | C#CC(=O)N(c1ccc(C(=O)OC)cc1)C(C(=O)NC(C)(C)C)c1ccc(N)cc1 (centres unmarked) [A14, Methyl 4-(N-(1-(4-aminophenyl)-2-(tert-butylamino)-2-oxoethyl)-propiolamido)-benzoate] | ≤ 100 | 
14 | C#CC(=O)N(c1ccc(S(C)(=O)=O)cc1)C(C(=O)NC(C)(C)C)c1ccc(N)cc1 (centres unmarked) [A15, N-(1-(4-Aminophenyl)-2-(tert-butylamino)-2-oxoethyl)-N-(4-(methylsulfonyl)-phenyl)propiolamide] | 2000 to 10000 | 
15 | C#CC(=O)N(c1ccc(CO)cc1)C(C(=O)NC(C)(C)C)c1ccc(N)cc1 (centres unmarked) [A16, N-(1-(4-Aminophenyl)-2-(tert-butylamino)-2-oxoethyl)-N-(4-(hydroxymethyl)-phenyl)propiolamide] | 2000 to 10000 | 
16 | C#CC(=O)N(c1ccc(NS(C)(=O)=O)cc1)C(C(=O)NC(C)(C)C)c1ccc(N)cc1 (centres unmarked) [A17, N-(1-(4-Aminophenyl)-2-(tert-butylamino)-2-oxoethyl)-N-(4-(methyl-sulfonamido)phenyl)propiolamide] | > 10000 | 
17 | C#CC(=O)N(c1ccc(OC)cc1)C(C(=O)NC(C)(C)C)c1ccc(N)cc1 (centres unmarked) [A18, N-(1-(4-Aminophenyl)-2-(tert-butylamino)-2-oxoethyl)-N-(4-methoxyphenyl)-propiolamide] | 500 to 2000 | 
18 | C#CC(=O)N(c1cccc(Cl)c1)C(C(=O)NC(C)(C)C)c1cccc(N)c1 (centres unmarked) [A20, N-(1-(3-aminophenyl)-2-(tert-butylamino)-2-oxoethyl)-N-(3-chlorophenyl)propiolamide] | 100 to 500 | 
19 | C#CC(=O)N(c1ccc(OC)c(Cl)c1)C(C(=O)NC(C)(C)C)c1cccc(N)c1 (centres unmarked) [A21, N-(1-(3-Aminophenyl)-2-(tert-butylamino)-2-oxoethyl)-N-(3-chloro-4-methoxyphenyl)propiolamide] | 100 to 500 | 

Row | Compound | EC50 (24 h) [nM] | EC50 [nM]
20 | C#CC(=O)N(c1ccc(N)cc1)C(C(=O)NC(C)(C)C)c1cccc(N)c1 (centres unmarked) [A22, N-(4-Aminophenyl)-N-(1-(3-aminophenyl)-2-(tert-butylamino)-2-oxoethyl)-propiolamide] | 2000 to 10000 | 
21 | C#CC(=O)N(c1ccc(NC(C)=O)cc1)C(C(=O)NC(C)(C)C)c1cccc(N)c1 (centres unmarked) [A23, N-(4-Acetamidophenyl)-N-(1-(3-aminophenyl)-2-(tert-butylamino)-2-oxoethyl)-propiolamide] | 2000 to 10000 | 
22 | C#CC(=O)N(c1ccc(NS(C)(=O)=O)cc1)C(C(=O)NC(C)(C)C)c1cccc(N)c1 (centres unmarked) [A24, N-(1-(3-Aminophenyl)-2-(tert-butylamino)-2-oxoethyl)-N-(4-(methyl-sulfonamido)phenyl)propiolamide] | > 10000 | 
23 | C#CC(=O)N(c1ccc(S(N)(=O)=O)cc1)C(C(=O)NC(C)(C)C)c1cccc(N)c1 (centres unmarked) [A25, N-(1-(3-Aminophenyl)-2-(tert-butylamino)-2-oxoethyl)-N-(4-sulfamoylphenyl)-propiolamide] | > 10000 | 
24 | C#CC(=O)N(c1ccc(CO)cc1)C(C(=O)NC(C)(C)C)c1cccc(N)c1 (centres unmarked) [A26, N-(1-(3-Aminophenyl)-2-(tert-butylamino)-2-oxoethyl)-N-(4-(hydroxymethyl)-phenyl)propiolamide] | 2000 to 10000 | 
25 | C#CC(=O)N(c1ccc(O)cc1)C(C(=O)NC(C)(C)C)c1cccc(N)c1 (centres unmarked) [A27, N-(1-(3-Aminophenyl)-2-(tert-butylamino)-2-oxoethyl)-N-(4-hydroxyphenyl)-propiolamide] | 2000 to 10000 | 
26 | C#CC(=O)N(c1cccc(C(=O)OC)c1)C(C(=O)NC(C)(C)C)c1ccc(N)cc1 (centres unmarked) [A28, Methyl 3-(N-(1-(4-aminophenyl)-2-(tert-butylamino)-2-oxoethyl)-propiolamido)-benzoate] |  | 100 to 500
27 | C#CC(=O)N(c1ccc(OC)cc1)C(C(=O)NC(C)(C)C)c1cccc(N)c1 (centres unmarked) [A29, N-(1-(3-Aminophenyl)-2-(tert-butylamino)-2-oxoethyl)-N-(4-methoxyphenyl)-propiolamide] | 500 to 2000 | 
28 | C#CC(=O)N(c1cccc(Cl)c1)C(C(=O)NCc1ccccc1)c1ccc(N)cc1 (centres unmarked) [A32, N-(1-(4-Aminophenyl)-2-(benzylamino)-2-oxoethyl)-N-(3-chlorophenyl)-propiolamide] | ≤ 100 | 
29 | C#CC(=O)N(c1cccc(Cl)c1)C(C(=O)NCc1ccccc1)c1cccc(N)c1 (centres unmarked) [A33, N-(1-(3-Aminophenyl)-2-(benzylamino)-2-oxoethyl)-N-(3-chlorophenyl)-propiolamide] | ≤ 100 | 
30 | C#CC(=O)N(c1ccc(OC)c(Cl)c1)C(C(=O)NCc1ccccc1)c1cccc(N)c1 (centres unmarked) [A34, N-(1-(3-Aminophenyl)-2-(benzylamino)-2-oxoethyl)-N-(3-chloro-4-methoxy-phenyl)propiolamide] | ≤ 100 | 
31 | C#CC(=O)N(Cc1ccccc1)C(C(=O)NCc1ccccc1)c1cccc(N)c1 (centres unmarked) [A36, N-(1-(3-Aminophenyl)-2-(benzylamino)-2-oxoethyl)-N-benzylpropiolamide] | 500 to 2000 | 
32 | C#CC(=O)N(c1cccc(O)c1)C(C(=O)NCc1ccccc1)c1cccc(N)c1 (centres unmarked) [A37, N-(1-(3-Aminophenyl)-2-(benzylamino)-2-oxoethyl)-N-(3-hydroxyphenyl)-propiolamide] | ≤ 100 | 
33 | C#CC(=O)N(c1cccc(C#N)c1)C(C(=O)NCc1ccccc1)c1cccc(N)c1 (centres unmarked) [A38, N-(1-(3-Aminophenyl)-2-(benzylamino)-2-oxoethyl)-N-(3-cyanophenyl)-propiolamide] | 100 to 500 | 
34 | C#CC(=O)N(c1cccc(CO)c1)C(C(=O)NCc1ccccc1)c1cccc(N)c1 (centres unmarked) [A39, N-(1-(3-Aminophenyl)-2-(benzylamino)-2-oxoethyl)-N-(3-(hydroxymethyl)-phenyl)propiolamide] | 2000 to 10000 | 
35 | C#CC(=O)N(c1cc(Cl)ccc1F)C(C(=O)NCc1ccccc1)c1cccc(N)c1 (centres unmarked) [A40, N-(1-(3-Aminophenyl)-2-(benzylamino)-2-oxoethyl)-N-(5-chloro-2-fluorophenyl)-propiolamide] | ≤ 100 | 
36 | C#CC(=O)N(c1cccc(Cl)c1F)C(C(=O)NCc1ccccc1)c1cccc(N)c1 (centres unmarked) [A41, N-(1-(3-Aminophenyl)-2-(benzylamino)-2-oxoethyl)-N-(3-chloro-2-fluoro-phenyl)propiolamide] | ≤ 100 | 
37 | C#CC(=O)N(c1cccc(NS(C)(=O)=O)c1)C(C(=O)NCc1ccccc1)c1cccc(N)c1 (centres unmarked) [A42, N-(1-(3-Aminophenyl)-2-(benzylamino)-2-oxoethyl)-N-(3-(methylsulfonamido)-phenyl)propiolamide] | 2000 to 10000 | 
38 | C#CC(=O)N(c1cccc(F)c1)C(C(=O)NCc1ccccc1)c1cccc(N)c1 (centres unmarked) [A43, N-(1-(3-Aminophenyl)-2-(benzylamino)-2-oxoethyl)-N-(3-fluorophenyl)-propiolamide] | 100 to 500 | 
